One assay relates to 3Y1 cell line. Description: Inhibitory activity against rat fibroblast (3Y1) cell line. In kind it is functional, cell-based.
A further assay concerns P388. Description: Cytotoxicity against mouse leukemia (P388) cell line. In kind it is functional, cell-based.
The test system of a further assay is HeLa. The assay can be described thus: Cytotoxicity against human cervix carcinoma (HeLa) cell line. The format is functional, cell-based.
A further assay addresses Histone deacetylase. Description: Inhibitory activity against histone deacetylase (HDAC). In kind it is protein assay, Homo sapiens.

In ChEMBL document CHEMBL1146743, “Three new cyclostellettamines, which inhibit histone deacetylase, from a marine sponge of the genus Xestospongia” (Bioorg Med Chem Lett, 2004) one finds IC50 data, which are given here for four molecules.

Molecules are shown by their SMILES.

What is called IC50 is the midpoint of a concentration-inhibition curve.

Take `C1=C/CCCC[n+]2cccc(c2)CCCCCCCCCCCC[n+]2cccc(c2)CCCCCC/1.O=C([O-])C(F)(F)F.O=C([O-])C(F)(F)F`: the IC50 with 3Y1 cell line amounted to 7200 nM; in the assay with P388, 2100 nM; in the assay with HeLa it was 1800 nM; against Histone deacetylase, 61000 nM.

For the molecule `C1=C/CCCCCC[n+]2cccc(c2)CCCCCCCCCCCC[n+]2cccc(c2)CCCCCC/1.O=C([O-])C(F)(F)F.O=C([O-])C(F)(F)F`, the IC50 is 4300 nM in the assay with 3Y1 cell line, 1300 nM in the assay on P388, 600 nM in the assay on HeLa and 17000 nM against Histone deacetylase.

Take `C1=C/CCC[n+]2cccc(c2)CCCCCCCCCCCC[n+]2cccc(c2)CCCCCC/1.O=C([O-])C(F)(F)F.O=C([O-])C(F)(F)F`: the IC50 stood at 11000 nM with 3Y1 cell line, 2700 nM with P388, 2800 nM in the assay with HeLa and 80000 nM against Histone deacetylase.

Regarding `C1=C/CCCCCC[n+]2cccc(c2)CCCCCCCCCCCCC[n+]2cccc(c2)CCCCCC/1.O=C([O-])C(F)(F)F.O=C([O-])C(F)(F)F`, the IC50 turned out to be 3200 nM in the assay on 3Y1 cell line, 1300 nM in the assay with P388, 1800 nM in the assay with HeLa and 30000 nM against Histone deacetylase.
